Literature values, collected in patent US10328076B2, “Pharmaceutical composition comprising a triazole antifungal agent and method for preparation thereof” (PHARMATHEN S.A., priority 2014, dated 2019).
Read-outs that look alike come from different tables or passages of the source.

Q: For `C[C@@H](c1ncncc1F)[C@](O)(Cn1cncn1)c1ccc(F)cc1F` [Voriconazole, (2R,3S)-2-(2,4-difluorophenyl)-3-(5-fluoropyrimidin-4-yl)-1-(1H-1,2,4-triazol-1-yl)butan-2-ol], which Solubility (in acetone) is on record?
A: freely soluble

Q: What about the Solubility (in dichlorometane) of the same compound?
A: freely soluble

Q: And the Solubility (in water)?
A: very slightly soluble
